In assay [1] the test system is HIV-1 double mutant K103N/Y181C. The assay is described as follows: microbe, parasite or virus in culture. It is filed as cell-based.
Assay [2] has as its target T1, HIV-1 wild type reverse transcriptase (Human immunodeficiency virus type 1 group M subtype B, UniProt P03366).
T1 construct: HIV-1 wild type reverse transcriptase
Put plainly: biochemical. To be noted: wild type RT; read-out: IC50 WT RT. The protocol:
(§1) Utilizing the Reverse Transcriptase (RT) Assay described below, compounds were tested for their ability to inhibit the RNA-dependent DNA polymerase activity of HIV-1 RT. Certain specific compounds described in the Examples and in Tables 1-4, were so tested. The results of this testing appear in Table 5 as ranges of IC50 (nM) and EC50 (nM).
(§2) Reverse Transcriptase (RT) Assays

The target in assay [3] is T2, HIV-1 RT double mutant K103N/Y181C (Human immunodeficiency virus type 1 group M subtype B, UniProt P03366, K702N/Y780C).
T2 construct: HIV-1 wild type reverse transcriptase as well as the clinically significant double mutant K103N/Y181C
Put plainly: biochemical. As for the experimental part: as §1, §2

The next assay has as its system HIV-1 wild type. Put plainly: microbe, parasite or virus in culture. It is filed as cell-based.
The mark [4] stands for this setting: double mutant K103N/Y181C, read-out: EC50 K103N/Y181C.
[5] abbreviates: RT double mutant K103N/Y181C, read-out: IC50 K103N/Y181C.
Where [6] appears, read: wild type, read-out: EC50 WT RT.
[7] abbreviates: Human immunodeficiency virus 1, read-out: EC50 K103N/Y181C (nM).
The mark [8] stands for this setting: Human immunodeficiency virus 1, wild type, read-out: EC50 WT RT.
Setting [9] is: Human immunodeficiency virus 1, read-out: EC50 WT RT (nM).

SMILES strings stand for the structures. Where two headings read alike, the source gives them in different places.

Regarding `CCN1c2ncc(CCOc3ccc(C(=O)Nc4ccc[n+]([O-])c4)cc3C)cc2C(=O)Nc2c(C)ccnc21` [Entry 3020], the EC50 (in assay [1] (setting [4]); in the assay on HIV-1 wild type (setting [6])) was < 10 nM each time. Also, the IC50 in assay [2] and in assay [3] (setting [5]) was < 50 nM each time.

In the case of `CCN1c2ncc(CCOc3ccc(C(=O)Nc4nc(CC(=O)O)cs4)cc3C)cc2C(=O)N(C)c2cccnc21` [Entry 3007], the EC50 in assay [1] (setting [7]) is > 50 nM; in the assay with HIV-1 wild type (setting [8]) it was 10 to 50 nM. Besides, the IC50 in assay [2] and in assay [3] was < 50 nM in each case.

As for `CCN1c2ncc(CCOc3ccc(C(=O)Nc4cccnc4O)cc3C)cc2C(=O)N(C)c2cccnc21` [Entry 3021], the EC50 (in assay [1] (setting [7]); with HIV-1 wild type (setting [8])) was < 10 nM each time. For the same compound, the IC50 in assay [2] and in assay [3] was < 50 nM throughout.

For `CCN1c2ncc(CCOc3ccc(-c4csc(N)n4)cc3C)cc2C(=O)N(C)c2cccnc21` [Entry 1093, 8-{2-[4-(2-Amino-4-thiazolyl)-2-methylphenoxy]ethyl}-11-ethyl-5,11-dihydro-5-methyl-6H-dipyrido[3,2-b:2′,3′-e][1,4]diazepin-6-one], the EC50 (in assay [1] (setting [7]); with HIV-1 wild type (setting [8])) was < 10 nM each time. For the same compound, the IC50 in assay [2] and in assay [3] was < 50 nM in each case.

On to `CCN1c2ncc(CCOc3ccc(-c4cccc(C(=O)O)c4)cc3C)cc2C(=O)N(C)c2cccnc21` [Entry 1013, 4′-[2-(11-Ethyl-6,11-dihydro-5-methyl-6-oxo-5H-dipyrido[3,2-b:2′,3′-e][1,4]diazepin-8-yl)ethoxy]-3′-methyl-[1,1′-biphenyl]-3-carboxylic acid], for which the results for the EC50 (in assay [1] (setting [7]); in the assay with HIV-1 wild type (setting [9])) were 10 to 50 nM and < 10 nM, respectively. Besides, the IC50 in assay [2] and in assay [3] was < 50 nM each time.

For the compound `CCN1c2ncc(CCOc3ccc(-c4ccc(C(=O)O)o4)cc3C)cc2C(=O)N(C)c2cccnc21` [Entry 1046, 5-{4-[2-(11-Ethyl-6,11-dihydro-5-methyl-6-oxo-5H-dipyrido[3,2-b:2′,3′-e][1,4]diazepin-8-yl)ethoxy]-3-methylphenyl}-2-furanecarboxylic acid], the EC50 is > 50 nM in assay [1] (setting [7]) and < 10 nM in the assay with HIV-1 wild type (setting [8]). The IC50 in assay [2] is < 50 nM; in assay [3], > 100 nM.

Take `CCN1c2ncc(CCOc3ccc(NC(=O)C4CC4C(=O)O)cc3C)cc2C(=O)N(C)c2cccnc21` (stereo not drawn) [Entry 4009]: the EC50 in assay [1] (setting [7]) is > 50 nM; with HIV-1 wild type (setting [8]) it was < 10 nM. For the same compound, the IC50 in assay [2] is < 50 nM; in assay [3], > 100 nM.

As for `CCN1c2ncc(CCOc3ccc(C(=O)Nc4ccc(C(=O)O)cc4)cc3C)cc2C(=O)Nc2c(C)ccnc21` [Entry 3017], the EC50 in assay [1] (setting [4]) is > 50 nM; in the assay on HIV-1 wild type (setting [6]) it was 10 to 50 nM. Also, the IC50 in assay [2] and in assay [3] (setting [5]) was < 50 nM each time.

`CCN1c2ncc(CCOc3ccc(-c4c[nH]cn4)cc3C)cc2C(=O)N(C)c2cccnc21` [Entry 1094, 11-Ethyl-5,11-dihydro-8-{2-[4-(1H-imidazol-4-yl)-2-methylphenoxy]ethyl}-5-methyl-6H-dipyrido[3,2-b:2′,3′-e][1,4]diazepin-6-one]: the EC50 (in assay [1] (setting [7]); in the assay with HIV-1 wild type (setting [8])) was < 10 nM in each case. In addition, the IC50 in assay [2] and in assay [3] was < 50 nM throughout.

`CCN1c2ncc(CCOc3ccc(Nc4ccc(C(=O)O)cc4)cc3C)cc2C(=O)N(C)c2cccnc21` [Entry 3022, 4-{{4-[2-(11-Ethyl-6,11-dihydro-5-methyl-6-oxo-5H-dipyrido[3,2-b:2′,3′-e][1,4]diazepin-8-yl)ethoxy]-3-methylphenyl}amino}benzoic acid]: the EC50 in assay [1] (setting [7]) is 10 to 50 nM; with HIV-1 wild type (setting [9]), < 10 nM. Moreover, the IC50 in assay [2] and in assay [3] was < 50 nM in each case.

Regarding `CCN1c2ncc(CCOc3ccc(NC(=O)CC(C)(C)C(=O)O)cc3C)cc2C(=O)N(C)c2cccnc21` [Entry 4008], the EC50 was 10 to 50 nM in assay [1] (setting [7]) and < 10 nM with HIV-1 wild type (setting [8]). Besides, the IC50 in assay [2] is < 50 nM; in assay [3], > 100 nM.

In the case of `CCN1c2ncc(CCOc3ccc(C(=O)NCC(CC)(CC)C(=O)O)cc3C)cc2C(=O)N(C)c2cccnc21` [Entry 4014], the EC50 is 10 to 50 nM in assay [1] (setting [7]) and < 10 nM in the assay on HIV-1 wild type (setting [8]). Further, the IC50 in assay [2] and in assay [3] was < 50 nM throughout.

For `CCN1c2ncc(CCOc3ccc(NC(=O)Nc4ccc(C(=O)O)cc4)cc3C)cc2C(=O)N(C)c2cccnc21` [Entry 3031], the EC50 was > 50 nM in assay [1] (setting [7]) and 10 to 50 nM with HIV-1 wild type (setting [9]). The IC50 in assay [2] and in assay [3] was < 50 nM each time.

As to `CCN1c2ncc(CCOc3ccc(-c4cccc(C(=O)O)c4)cc3)cc2C(=O)N(C)c2cccnc21` [Entry 1012], the EC50 is 10 to 50 nM in assay [1] (setting [4]) and < 10 nM with HIV-1 wild type (setting [6]). The IC50 in assay [2] is < 50 nM; in assay [3] (setting [5]), > 100 nM.

As to `CCN1c2ncc(CCOc3ccc(-c4cn(C)cn4)cc3C)cc2C(=O)N(C)c2cccnc21` [Entry 1095, 11-Ethyl-5,11-dihydro-5-methyl-8-{2-[2-methyl-4-(1-methyl-1H-imidazol-4-yl)phenoxy]ethyl}-6H-dipyrido[3,2-b:2′,3′-e][1,4]diazepin-6-one], the EC50 (in assay [1] (setting [7]); in the assay on HIV-1 wild type (setting [8])) was < 10 nM throughout. Further, the IC50 in assay [2] and in assay [3] was < 50 nM in each case.

For `CCN1c2ncc(CCOc3ccc(C(=O)Nc4cccc(CC(=O)O)c4)cc3C)cc2C(=O)N(C)c2cccnc21` [Entry 3010], the EC50 (in assay [1] (setting [7]); with HIV-1 wild type (setting [9])) was 10 to 50 nM throughout. Further, the IC50 in assay [2] and in assay [3] was < 50 nM throughout.

`CCN1c2ncc(CCOc3ccc(C(=O)NC(C)(C)CC(=O)O)cc3C)cc2C(=O)N(C)c2cccnc21` [Entry 4017]: the values for the EC50 (in assay [1] (setting [7]); in the assay with HIV-1 wild type (setting [8])) were > 50 nM and < 10 nM, respectively. Besides, the IC50 was < 50 nM in assay [2] and > 100 nM in assay [3].

Consider `CCN1c2ncc(CCOc3ccc(NC(=O)CCC(=O)O)cc3C)cc2C(=O)N(C)c2cccnc21` [Entry 4006], for which the EC50 in assay [1] (setting [7]) is > 50 nM; with HIV-1 wild type (setting [8]) it was 10 to 50 nM. The IC50 in assay [2] is < 50 nM; in assay [3] it was 50 to 100 nM.

For the compound `CCN1c2ncc(CCOc3ccc(C(=O)Nc4ccc(C(=O)O)cc4)cc3C)cc2C(=O)N(C)c2cccnc21` [Entry 3001, 4-{{4-[2-(11-Ethyl-6,11-dihydro-5-methyl-6-oxo-5H-dipyrido[3,2-b:2′,3′-e][1,4]diazepin-8-yl)ethoxy]-3-methylbenzoyl}amino}benzoic acid], the values for the EC50 (in assay [1] (setting [7]); in the assay with HIV-1 wild type (setting [9])) were 10 to 50 nM and < 10 nM, respectively. Besides, the IC50 in assay [2] and in assay [3] was < 50 nM in each case.

For the compound `CCN1c2ncc(CCOc3ccc(S(=O)(=O)Nc4ccc(C(=O)O)cc4)cc3C)cc2C(=O)N(C)c2cccnc21` [Entry 3030], the EC50 (in assay [1] (setting [4]); in the assay with HIV-1 wild type (setting [6])) was > 50 nM in each case. Moreover, the IC50 in assay [2] and in assay [3] (setting [5]) was < 50 nM each time.

As for `CCN1c2ncc(CCOc3ccc(-c4ccc(N)c(C(=O)O)c4)cc3C)cc2C(=O)N(C)c2cccnc21` [Entry 1034, 4-Amino-4′-[2-(11-ethyl-6,11-dihydro-5-methyl-6-oxo-5H-dipyrido[3,2-b:2′,3′-e][1,4]diazepin-8-yl)ethoxy]-3′-methyl-[1,1′-biphenyl]-3-carboxylic acid], the EC50 (in assay [1] (setting [7]); in the assay with HIV-1 wild type (setting [9])) was < 10 nM each time. Moreover, the IC50 in assay [2] and in assay [3] was < 50 nM throughout.
